Test results reported in US9212205B2, “Nucleic acid binding compounds and methods of use” (University of Rochester, priority 2007, dated 2015).
Where two headings read alike, the source gives them in different places.

Tests used:
[1] = biological target: DNA sequence homologous to I (Seq II, SEQ ID NO:2); test: SPR binding specificity, Seq II
Method: (§1) Graphical analysis of Surface Plasmon Resonance (SPR) data was carried out using DeltaGraph (Rockware Inc.). SPR analysis was conducted on a Reichert SR7000 refractometer using Reichert gold sensor slides that consist of a mixed self-assembled monolayer of thiol-PEG-alcohols and thio-PEG-carboxylic acids (˜9:1; PEG=polyethylene glycol). Amine functionalized small molecules were attached by […]/EDC coupling to the carboxy termini of the surface. After activating the monolayer, molecules were covalently attached through the addition of a 1 mg/mL solution of molecule in a sodium acetate buffer (20 mM, pH=5.5). Unreacted activated esters were quenched through the addition of ethanolamine. A flow rate of 10 μL/min and injection volumes of 150 μL was used throughout the experiment. RNA solutions were made to be 15.3 nM, 62.5 nM, 250 nM, 500 nM, 1 μM, 2 μM, 10 μM, and 50 μM. […]
(§2) Specificity was assessed by measuring the affinity of 1-1 to three other oligonucleotides: the DNA sequence homologous to I (Seq II, FIG. 7C, SEQ ID NO:2), the alternate RNA stem-loop (Seq III, FIG. 7D, SEQ ID NO:3) (Karan et al., “RNA-Selective Coordination Complexes Identified via Dynamic Combinatorial Chemistry,” J. Am. Chem. Soc. 123:7455-7456 (2001), which is hereby incorporated by reference in its entirety), and an RNA stem loop with an altered loop sequence (Seq IV, FIG. 7E, SEQ ID NO:4).

[2] = biological target: RNA stem loop with an altered loop sequence (Seq IV, SEQ ID NO:4); test: SPR binding specificity, Seq IV; settings: read-out: affinity for sequence IV
Method: as §1, §2

[3] = biological target: HIV-1 frameshift-inducing RNA stem-loop (SEQ ID NO:1); test: Fluorescence titration of Cy-3 labeled HIV-1 RNA stem-loop; format: binding; settings: stem-loop 4 × 10^−7 M, PBS buffer, 25° C.
Method: The binding of dicarba analogs to the HIV-1 frameshift-inducing RNA was measured using fluorescence spectroscopy. Fluorescence titrations were performed on a Varian Cary eclipse fluorescence spectrophotometer using 1 cm path-length quartz fluorescence cell. The solution of Cy-3 labeled HIV-1 RNA stem-loop in PBS buffer (400 μL, 400 nM) was taken in the cell and excited with a wavelength of 550 nm. A PMT voltage of 715 V was used for collecting the fluorescence data and the emission spectrum was collected from 555 to 600 nm wavelength range. The ligand solution in PBS buffer was added to the target RNA in the cell in either 2 or 4 μL increments and was allowed to equilibrate for 10 minutes before recording the emission spectrum. Statistical analysis of the data was carried out using Origin 7 (OriginLab corporation). Binding constants were determined by fitting the data to one-site binding model equation.
A 5′-Cy3 labeled upper stem-loop of HIV-1 RNA (SEQ ID NO:1) was titrated with increasing amount of the dicarba analogs in a phosphate buffer (PBS, pH 7.4) using the same protocol to that described in Example 3 above. The fluorescence intensity of the labeled RNA stem-loop decreased as a function of the ligand concentration. […] Normally, one would expect a greater difference between the affinities of the two isomers.
To further evaluate the binding selectivity of dicarba analogs to the frameshift-inducing stem-loop, fluorescence titrations were repeated in the presence of twenty-fold excess concentration of yeast tRNA. […] In an interesting result it was discovered that the monomeric compound (5) also bound to the HIV-1 RNA stem-loop with similar affinity as that of the other analogs, but the binding affinity was diminished in the presence of tRNA. […] Quinoline is a known intercalator of nucleotide bases and has the capability to interact with RNA non-specifically. But it is the peptidic part of the molecule in ligands 5-5 E and 5-5 Z that imparts specificity to the interaction between the ligand and the RNA stem-loop. The peptidic part on monomer 5 is insufficient to impart specificity to the interaction as evident from the results.

[4] = biological target: (CUG) repeat RNA SEQ ID NO:7; test: Filter binding assay (FBA), SEQ ID NO:7; settings: negative control; method (FBA or FT) not stated; read-out: KD for CUG repeat RNA (SEQ ID NO:7)
Method: A filter binding assay system was utilized to provide a rapid initial assessment of binding affinity. All binding studies were performed in PBS pH 7.2+1 mM MgCl2 at 22° C. Various concentrations of small molecules were incubated with 10 nM FAM-labeled RNA in a total volume of 50 μl for 20 minutes. A slot blot apparatus was then assembled with a wet nitrocellulose filter, on top of a wet nylon filter, on top of filter paper. 40 μl of each binding mixture was then loaded into an individual well of the apparatus and allowed to penetrate the filters for 10 minutes. The peptidic disulfides selected from the DCL efficiently bind to the nitrocellulose filter. In contrast, the FAM-labeled RNA strands penetrate the nitrocellulose filter and are bound by the nylon filter. As such, RNA bound by the peptidic library members remains bound on the nitrocellulose filter, and unbound RNA passes to the nylon filter.
Densitometric analysis of the ratio of labeled RNA on the nitrocellulose to nylon filters allows quantification of binding (FIG. 15A). All binding isotherms were fit to the logistic binding model (Equation 1 above). The repetitive nature of the target sequences may in some cases result in binding stoichiometries that are more complex than a simple 1:1 interaction.
To test specificity and to confirm the determined binding affinities, filter binding assays and fluorescence titrations were performed with SEQ ID NOS: 7-11 (Table 5), and the HIV-1 frameshift stimulating RNA hairpin used in preceding Examples (SEQ ID NO:1, Table 5). Fluorescence titrations were performed using a Varian Cary Eclipse spectrophotometer. 2 μl of 50 or 500 μM small molecule were titrated into 400 μl of FAM labeled RNA sequences an allowed to equilibrate for at least 10 minutes, or until no change in fluorescence spectra was observed. Changes in fluorescence emission at 518 nm (excitation at 490 nm) were measured. Raw data were corrected for dilution dependant changes, and Em518 was plotted against small molecule concentration and fit to the one site binding equation y=(bmaz*x)/(KD+x).) Competition experiments utilizing target RNA (SEQ ID NO:7) and a 20-fold molar excess of total yeast tRNA were performed to measure non-specific RNA binding (Luedtke et al., “RNA-Ligand Interactions: Affinity and Specificity of Aminoglycoside Dimers and Acridine Conjugates to the HIV-1 Rev Response Element,” Biochemistry 42:11391-11403 (2003), which is hereby incorporated by reference in its entirety). Compound 1-1, the HIV-1 RNA ligand, served as a negative control.

CCc1nc2ccccc2cc1C(=O)N[C@@H](CSSC[C@H](NC(=O)c1cc2ccccc2nc1CC)C(=O)N1CCC[C@H]1C(=O)N[C@@H](Cc1ccccc1)C(=O)NCCCN)C(=O)N1CCC[C@H]1C(=O)N[C@@H](Cc1ccccc1)C(=O)NCCCN [dimer 1-1]
affinity for sequence II [1]: no measurable affinity | Kd [2]: > 90000 nM | Kd ([3]; 8 μM tRNA (twenty-fold excess), read-out: Binding Affinity (Kd) in the presence of excess yeast tRNA): 320 ± 70 nM | Kd ([3]; fluorescence titration, read-out: Binding Affinity (Kd)): 350 ± 110 nM | Kd [4]: > 40000 nM
